Data reported in BigSolDB 2.1.

NCCCCCCN
solubility (mole fraction)
Conditions	in 1,4-dioxane	in cyclohexane	in isobutanol	in n-butanol	in n-hexane	in n-propanol	in toluene
278.15 K	–	0.0071	0.193	0.35	0.0103	0.315	0.132
283.15 K	0.135	0.0092	0.236	0.389	0.0149	0.354	0.161
288.15 K	0.194	0.0126	0.288	0.448	0.018	0.391	0.209
293.15 K	0.267	0.0187	0.351	0.508	0.0268	0.431	0.259
298.15 K	0.348	0.0309	0.427	0.584	0.0449	0.485	0.334
303.15 K	0.467	0.053	0.521	0.652	0.0729	0.552	0.434
